Reference: US7435438B1, “Disinfectant and method of use” (Pure BioScience, priority 2003, dated 2008)

Assays:
[1] = tested on: Influenza A ATCC VR-544, Hong Kong Strain
[2] = tested on: Trichophyton Mentagrophytes ATCC 9533; settings: 30 ppm
total bacteria present = settings: approximately 5 ppm for 5 seconds, drip dry 10 seconds, rinse in 0.1 ppm for 5 seconds; fruits, vegetables, fish and shrimp
[3] = tested on: Enterococcus faecium ATCC 6569
[4] = tested on: dermal lesions both contaminated and infected with gram negative and gram positive bacteria
[5] = tested on: Herpes simplex type I ATCC VR-733, Strain F(1)
[6] = tested on: pathogenic bacterial populations, biofilms
[7] = tested on: Enterococcus facium (VRE) ATCC 700221; settings: 30 ppm
[8] = tested on: Staphylococcus aureus (MRSA) ATCC 700698; settings: 30 ppm
[9] = tested on: Staphylococcus aureus ATCC 6538
[10] = tested on: Legionella in biofilm and planktonic samples
[11] = tested on: Salmonella cholerasuis ATCC 10708
[12] = tested on: Poliovirus type 2 ATCC VR-1002, Strain Lansing
[13] = tested on: listeria monocytogenes ATCC 11543
[14] = tested on: Rhinovirus R37 ATCC VR-1147, Strain 151-1
[15] = tested on: HIV type1, Strain HTLV = IIIB
[16] = tested on: Proprionibacterium acnes ATCC 6921; settings: 30 ppm
[17] = tested on: heterotrophic bacteria (HBC) in biofilm and planktonic phases
[18] = tested on: Listeria monocytogenes ATCC 19111; settings: 30 ppm
[19] = tested on: Pseudomonas aeruginosa ATCC 15422
[20] = equine, observed repeatedly during the study

Substance: silver dihydrogen citrate
- KILL TIME [1]: 10-minute
- effectiveness as hard surface disinfectant with direct food contact [1]: effective
- exposure after which the fungus is killed [2]: 10 min
- total bacteria present eliminated (total bacteria present): 99.99%
- effectiveness as hard surface disinfectant with direct food contact [3]: effective
- efficacy for irrigating deep wounds and abscesses ([4]; equine): very efficacious
- granulation / fibrosis ([4]; equine): promote healthy granulation without excessive fibrosis
- healing time [4, 20]: Decreased healing time
- scar formation [4, 20]: reduction in scar formation
- performance on dermal lesions compared to available disinfectant products on the market ([4]; equine, wet dressings or spray): superior performance
- healing and draining of deep wounds closed with drains ([4]; flushed with the disinfectant): rapid healing time and reduced draining
- uterine flush for bacterial and/or fungal/yeast infection ([4]; preliminary results): very promising
- KILL TIME [5]: 1-minute
- effectiveness as hard surface disinfectant with direct food contact [5]: effective
- mortality in shrimp raising tanks [6]: decreasing
- pathogenic bacterial populations, biofilms ([6]; shrimp raising tanks): significantly reducing
- KILL TIME [7]: 2-minute
- KILL TIME [8]: 2-minute
- KILL TIME [9]: 30-seconds
- effectiveness as hard surface disinfectant with direct food contact [9]: effective
- result of ASTM E645-97 test (L. pneumophila): passed
- KILL TIME (E. coli 0157 ATCC 43888): 2-minute
- effectiveness as hard surface disinfectant with direct food contact (E. coli 0157 ATCC 43888): effective
- killing of Legionella (in words) [10]: killed Legionella
- KILL TIME [11]: 30-seconds
- effectiveness as hard surface disinfectant with direct food contact [11]: effective
- effectiveness as hard surface disinfectant with direct food contact (E. coli ATCC 11229): effective
- KILL TIME [12]: 10-minute
- effectiveness as hard surface disinfectant with direct food contact [12]: effective
- effectiveness as hard surface disinfectant with direct food contact [13]: effective
- effectiveness as hard surface disinfectant with direct food contact (SARS): will be effective
- KILL TIME [14]: 10-minute
- effectiveness as hard surface disinfectant with direct food contact [14]: effective
- KILL TIME [15]: 30-second
- effectiveness as hard surface disinfectant with direct food contact [15]: effective
- KILL TIME [16]: 15-seconds
- reduction of heterotrophic bacteria [17]: did not significantly reduce
- KILL TIME [18]: 30-seconds
- KILL TIME [19]: 30-seconds
- effectiveness as hard surface disinfectant with direct food contact [19]: effective
